Measured values reported in patent US20130164337A1, “ANTIMICROBIAL ACTION PHARMACEUTICAL COMPOSITION FOR PARENTERAL ADMINISTRATION AND ITS PRODUCTION PROCESS” (priority 2010, published 2013).

Columns and labels:
Test in all cases: Experimental sepsis model in mice, survival on the 7th day
Type in all cases: in vivo
[1] = system: Pseudomonas aeruginosa (ATCC 27853 F-51); conditions: Pseudomonas aeruginosa 5×10^8 CFU/mouse; 100 mg/kg intravenous daily during 3 days; hybrid mice (CBA×C57Black/6)CBF1
Text: (§1) To determine therapeutic efficiency of betalactam and their pharmaceutical compositions including BHSiO2, we used experimental sepsis models and a statistical processing method of the received data (χ^2) according to [22, 23].
(§2) Microorganisms: Staphylococcus aureus (ATCC ? 25923 F-49), Escherichia coli (ATCC ? 25922 F-50), Pseudomonas aeruginosa (ATCC ? 27853 F-51).
(§3) Animals: for the experiments we used hybrid mice (CBA×C57Black/6)CBF1 according to the “Regulations for test animals use” (USSR Ministry of health order supplement ? 755 from 12.08. 1977).
(§4) The mice have been injected 0.8 ml of Pseudomonas aeruginosa daily culture suspension with a dosage 5×10^8 CFU/mouse or Staphylococcus aureus daily culture suspension with a dosage of 10^10 CFU/mouse or Escherichia coli daily culture suspension with a dosage of 8×10^8 CFU/mouse.
(§5) The control group has been injected with 0.8 ml of normal saline solution (0.9% sodium chloride solution). In a day after being infected the test mice have been daily (during 3 days) intravenous injected with 100 mg/kg of antibiotics or different pharmaceutical compositions (antibiotic/BHSiO2) watered down with 0.25 ml of normal saline solution. The control group of mice has been injected using the same scheme with normal saline solution […].
(§6) Antibacterial therapy efficiency was evaluated basing on the quantity of the surviving animals on the 7th day after being infected.
(§7) The obtained data shown in Table ? 3 reflect the results of 3 independent experiments (for each preparation research were used not less than 30 test animals in total).

[2] = system: Escherichia coli (ATCC 25922 F-50); conditions: Escherichia coli 8×10^8 CFU/mouse; 100 mg/kg intravenous daily during 3 days; hybrid mice (CBA×C57Black/6)CBF1
Text: as §1, §2, §3, §4, §5, §6, §7

[3] = system: Staphylococcus aureus (ATCC 25923 F-49); conditions: Staphylococcus aureus 10^10 CFU/mouse; 100 mg/kg intravenous daily during 3 days; hybrid mice (CBA×C57Black/6)CBF1
Text: as §1, §2, §3, §4, §5, §6, §7

Structure (SMILES) | Mice survival rate on the 7th day of infection [1] | Mice survival rate on the 7th day of infection [2] | Mice survival rate on the 7th day of infection [3]
C[C@H]1[C@H](NC(=O)/C(=N\OC(C)(C)C(=O)O)c2csc(N)n2)C(=O)N1S(=O)(=O)O [Aztreonam] | 74.4% (32/43) | 77.5% (31/40) | 
CC1(C)S[C@@H]2[C@H](NC(=O)C(C(=O)O)c3ccccc3)C(=O)N2[C@H]1C(=O)O (stereo partly drawn) [Carbenicillin] | 43.3% (13/30) | 43.3% (13/30) | 46.7% (14/30)
Cc1nnc(SCC2=C(C(=O)O)N3C(=O)[C@@H](NC(=O)Cn4cnnn4)[C@H]3SC2)s1 [Cefazolin] |  |  | 37.5% (12/32)
CO/N=C(\C(=O)N[C@@H]1C(=O)N2C(C(=O)[O-])=C(C[N+]3(C)CCCC3)CS[C@H]12)c1csc(N)n1 [Cefepime] | 46.7% (14/30) | 43.7% (14/32) | 46.7% (14/30)
CCN1CCN(C(=O)N[C@@H](C(=O)N[C@@H]2C(=O)N3C(C(=O)O)=C(CSc4nnnn4C)CS[C@H]23)c2ccc(O)cc2)C(=O)C1=O [Cefoperazone] | 40.0% (12/30) | 45.2% (14/31) | 
CO/N=C(\C(=O)N[C@@H]1C(=O)N2C(C(=O)O)=C(COC(C)=O)CS[C@H]12)c1csc(N)n1 [Cefotaxime] |  | 43.3% (13/30) | 40.0% (12/30)
CO[C@@]1(NC(=O)Cc2cccs2)C(=O)N2C(C(=O)O)=C(COC(N)=O)CS[C@@H]21 [Cefoxitin] |  | 46.7% (14/30) | 35.2% (15/34)
CC(C)(O/N=C(\C(=O)N[C@@H]1C(=O)N2C(C(=O)[O-])=C(C[n+]3ccccc3)CS[C@H]12)c1csc(N)n1)C(=O)O [Ceftazidime] | 43.3% (13/30) | 38.7% (15/31) | 
CO/N=C(\C(=O)N[C@@H]1C(=O)N2C(C(=O)O)=C(CSc3nc(=O)c(=O)[nH]n3C)CS[C@H]12)c1csc(N)n1 [Ceftriaxone] |  | 41.9% (13/31) | 46.7% (14/30)
CO/N=C(\C(=O)N[C@@H]1C(=O)N2C(C(=O)O)=C(COC(N)=O)CS[C@H]12)c1ccco1 [Cefuroxime] |  | 43.7% (14/32) | 40.0% (14/35)
C[C@@H](O)[C@H]1C(=O)N2C(C(=O)O)=C(S[C@@H]3CN[C@H](C(=O)N(C)C)C3)[C@H](C)[C@H]12 [Meropenem] | 73.8% (31/42) | 78.0% (32/41) | 73.3% (22/30)
